The numbers were not newly measured in patent US6340756B1, “Process for preparing a 2-(2-amino-1, 6-dihydro-6-oxo-purin-9-yl)methoxy-1,3-propanediol derivative” (Syntex (U.S.A.) Inc., priority 1996, dated 2002), which cites them from elsewhere.

For series [1] the following is noted: rats, urinary recovery of acyclovir, Beauchamp et al. 1992.
The conditions of series [2]: EP 0 694 547 A.
For series [3] the following is noted: EP 0 694 547 A. The source holds these as a separate data set.
For series [4] the following is noted: EP 0 308 065 A2.

`CC[C@H](N)C(=O)OCCOCn1cnc2c(=O)[nH]c(N)nc21`: the “amount of the parent drug (acyclovir) in the urine compared with acyclovir itself” value (shortened to “amount … compared with acyclovir itself”) in series [1] is given as “greater amounts of the parent drug in the urine than acyclovir itself”.
Consider `CC(N)C(=O)OCCOCn1cnc2c(=O)[nH]c(N)nc21` (racemic) [D,L-alanyl], for which, in series [1], the “amount … compared with acyclovir itself” value is given as “greater amounts of the parent drug in the urine than acyclovir itself”.
Regarding `CC(C)C(N)C(=O)OCCOCn1cnc2c(=O)[nH]c(N)nc21` (racemic) [D,L-valyl], in series [1], the “amount … compared with acyclovir itself” value is reported as “greater amounts of the parent drug in the urine than acyclovir itself”.
Consider `CCC(C)C(N)C(=O)OCCOCn1cnc2c(=O)[nH]c(N)nc21` (racemic) [DL-isoleucyl], for which the “amount … compared with acyclovir itself” value in series [1] is reported as “greater amounts of the parent drug in the urine than acyclovir itself”.
Consider `CC(C)[C@@H](N)C(=O)OCC(CO)OCn1cnc2c(O)nc(N)nc21` (stereo partly drawn) [2-(2-amino-1,6-dihydro-6-oxo-purin-9-yl)methoxy-3-hydroxy-1-propyl-L-valinate], for which the oral absorption entry in series [2] was “improved oral absorption”. Besides, the toxicity result in series [3] is given as “low toxicity”.
Turning to `C[C@H](N)C(=O)OCCOCn1cnc2c(=O)[nH]c(N)nc21` [L-alanyl], in series [1], the “amount … compared with acyclovir itself” value was “greater amounts of the parent drug in the urine than acyclovir itself”.
Regarding `CC[C@H](C)[C@H](N)C(=O)OCCOCn1cnc2c(=O)[nH]c(N)nc21` [L-isoleucyl], the “amount … compared with acyclovir itself” value in series [1] is given as “greater amounts of the parent drug in the urine than acyclovir itself”.
As to `CSCC[C@H](N)C(=O)OCCOCn1cnc2c(=O)[nH]c(N)nc21` [L-methionyl], the “amount … compared with acyclovir itself” value in series [1] is given as “greater amounts of the parent drug in the urine than acyclovir itself”.
Turning to `Nc1nc2c(ncn2COCCOC(=O)C2CCCN2)c(=O)[nH]1` [L-prolyl], in series [1], the “amount … compared with acyclovir itself” value is reported as “greater amounts of the parent drug in the urine than acyclovir itself”.
For `CC(C)[C@H](N)C(=O)OCCOCn1cnc2c(=O)nc(N)[nH]c21` [L-valyl], the “amount … compared with acyclovir itself” value in series [1] is reported as “greater amounts of the parent drug in the urine than acyclovir itself”. Further, in series [1] (eighteen amino acid esters), the “rank as prodrug among the esters investigated” value was “best prodrug”.
As to `NCC(=O)OCCOCn1cnc2c(=O)[nH]c(N)nc21` [glycyl], the “amount … compared with acyclovir itself” value in series [1] is reported as “greater amounts of the parent drug in the urine than acyclovir itself”.
For the compound `CC(C)[C@H](N)C(=O)OCCOCn1cnc2c(=O)nc(N)[nH]c21` [valine ester of acyclovir], in series [4], the “absorption from the gut after oral administration, compared with other esters and acyclovir” value is recorded as “large increase in absorption”.
